Experimental data reported in patent publication US8921362B2, “6,7-dialkoxy quinazoline derivatives and methods of treating drug resistant and other tumors” (Natco Pharma Limited, priority 2008, dated 2014).

What was measured:
Assay in all cases: KinomeScan
Type in all cases: binding
Settings in all cases: read-out: % Ctrl @ 10000 nM
[1] = biological target: T1, GCN2(Kin.Dom.2.S808G) (Homo sapiens, UniProt Q9P2K8, S808G)
T1 construct: GCN2(KIN.DOM.2, S808G); host or cells: T7 phage in E. coli host derived from BL21
T1 sequence (Q9P2K8 590-1001 S808G limits assumed): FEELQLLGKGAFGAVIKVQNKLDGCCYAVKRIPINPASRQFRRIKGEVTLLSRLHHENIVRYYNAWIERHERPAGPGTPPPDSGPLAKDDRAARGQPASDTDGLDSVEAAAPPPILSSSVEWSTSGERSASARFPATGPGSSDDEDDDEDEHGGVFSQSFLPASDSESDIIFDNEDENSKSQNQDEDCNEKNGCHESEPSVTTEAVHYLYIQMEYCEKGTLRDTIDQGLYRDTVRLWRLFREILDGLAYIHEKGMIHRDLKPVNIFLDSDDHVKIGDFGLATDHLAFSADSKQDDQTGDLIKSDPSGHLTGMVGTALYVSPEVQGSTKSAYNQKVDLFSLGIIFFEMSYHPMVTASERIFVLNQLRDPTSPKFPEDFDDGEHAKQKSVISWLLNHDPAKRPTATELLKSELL
Method in brief: (§1)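 Steps: grow kinase-tagged T7 phage in BL21-derived E. coli (MOI ~0.1, 32° C., to lysis); clear lysate; mix with blocked ligand beads and compound; elute; titer by qPCR.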

[2] = biological target: T2, BRAF (Homo sapiens, UniProt P15056)
T2 construct: host or cells: E. coli host derived from BL21
T2 sequence (P15056 whole entry): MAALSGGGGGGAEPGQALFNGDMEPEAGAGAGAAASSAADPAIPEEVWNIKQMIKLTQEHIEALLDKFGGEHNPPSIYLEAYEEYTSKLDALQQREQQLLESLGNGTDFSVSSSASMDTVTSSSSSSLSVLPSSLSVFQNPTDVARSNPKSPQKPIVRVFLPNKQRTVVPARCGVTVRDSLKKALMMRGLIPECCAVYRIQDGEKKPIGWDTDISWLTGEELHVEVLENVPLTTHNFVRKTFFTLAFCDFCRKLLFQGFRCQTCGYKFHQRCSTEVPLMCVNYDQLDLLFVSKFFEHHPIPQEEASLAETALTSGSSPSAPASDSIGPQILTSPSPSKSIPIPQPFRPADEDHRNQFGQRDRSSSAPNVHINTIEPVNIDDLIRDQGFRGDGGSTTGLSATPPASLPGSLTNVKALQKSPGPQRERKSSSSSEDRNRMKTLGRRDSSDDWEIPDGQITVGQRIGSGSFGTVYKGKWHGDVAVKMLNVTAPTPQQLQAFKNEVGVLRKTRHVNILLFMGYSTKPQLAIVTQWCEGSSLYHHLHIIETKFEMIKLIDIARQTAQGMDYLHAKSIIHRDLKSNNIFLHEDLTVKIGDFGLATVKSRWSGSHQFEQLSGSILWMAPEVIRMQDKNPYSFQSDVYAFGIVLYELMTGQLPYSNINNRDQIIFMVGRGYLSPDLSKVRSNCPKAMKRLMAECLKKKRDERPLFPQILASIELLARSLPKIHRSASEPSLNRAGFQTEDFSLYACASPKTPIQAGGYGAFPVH
Method in brief: as §1

[3] = biological target: T3, GAK (Homo sapiens, UniProt O14976)
T3 construct: host or cells: T7 phage in E. coli host derived from BL21
T3 sequence (O14976 whole entry): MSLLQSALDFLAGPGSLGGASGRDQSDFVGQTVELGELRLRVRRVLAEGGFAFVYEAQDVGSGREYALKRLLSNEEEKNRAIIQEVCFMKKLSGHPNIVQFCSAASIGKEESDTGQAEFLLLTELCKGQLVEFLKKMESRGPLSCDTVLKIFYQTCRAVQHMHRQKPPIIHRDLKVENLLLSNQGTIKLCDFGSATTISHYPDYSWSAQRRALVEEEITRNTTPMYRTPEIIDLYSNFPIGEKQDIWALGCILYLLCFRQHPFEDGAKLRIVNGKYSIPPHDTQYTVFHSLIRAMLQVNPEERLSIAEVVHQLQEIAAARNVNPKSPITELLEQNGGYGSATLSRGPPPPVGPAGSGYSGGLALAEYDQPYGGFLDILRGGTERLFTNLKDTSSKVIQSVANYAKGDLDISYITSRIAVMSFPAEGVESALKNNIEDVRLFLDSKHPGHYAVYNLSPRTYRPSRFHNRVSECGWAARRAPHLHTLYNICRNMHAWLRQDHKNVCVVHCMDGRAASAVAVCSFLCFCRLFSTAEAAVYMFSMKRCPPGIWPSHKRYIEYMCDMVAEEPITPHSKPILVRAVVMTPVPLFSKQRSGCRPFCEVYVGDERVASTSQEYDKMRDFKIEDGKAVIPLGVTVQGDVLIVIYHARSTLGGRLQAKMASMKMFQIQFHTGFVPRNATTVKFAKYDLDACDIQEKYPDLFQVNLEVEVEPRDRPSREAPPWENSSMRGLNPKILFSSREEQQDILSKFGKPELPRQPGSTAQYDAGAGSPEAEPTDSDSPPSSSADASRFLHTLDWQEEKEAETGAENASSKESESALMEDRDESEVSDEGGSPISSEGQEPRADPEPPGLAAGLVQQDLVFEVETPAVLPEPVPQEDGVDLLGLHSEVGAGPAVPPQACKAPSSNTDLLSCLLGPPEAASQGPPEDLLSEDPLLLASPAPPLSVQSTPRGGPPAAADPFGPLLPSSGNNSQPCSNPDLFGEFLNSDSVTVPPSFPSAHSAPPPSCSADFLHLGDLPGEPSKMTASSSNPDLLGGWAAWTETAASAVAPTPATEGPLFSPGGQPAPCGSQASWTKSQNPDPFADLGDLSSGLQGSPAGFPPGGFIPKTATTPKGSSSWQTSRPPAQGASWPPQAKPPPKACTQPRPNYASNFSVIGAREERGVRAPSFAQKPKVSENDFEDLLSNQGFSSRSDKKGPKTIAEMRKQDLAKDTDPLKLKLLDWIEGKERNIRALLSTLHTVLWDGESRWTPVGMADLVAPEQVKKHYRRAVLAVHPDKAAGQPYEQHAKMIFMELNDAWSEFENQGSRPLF
Method in brief: as §1

[4] = biological target: T4, KIT(V559D, T670I) (Homo sapiens, UniProt P10721, T670I/V559D)
T4 construct: host or cells: T7 phage grown in E. coli host derived from BL21
T4 sequence (P10721 26-976 V559D/T670I): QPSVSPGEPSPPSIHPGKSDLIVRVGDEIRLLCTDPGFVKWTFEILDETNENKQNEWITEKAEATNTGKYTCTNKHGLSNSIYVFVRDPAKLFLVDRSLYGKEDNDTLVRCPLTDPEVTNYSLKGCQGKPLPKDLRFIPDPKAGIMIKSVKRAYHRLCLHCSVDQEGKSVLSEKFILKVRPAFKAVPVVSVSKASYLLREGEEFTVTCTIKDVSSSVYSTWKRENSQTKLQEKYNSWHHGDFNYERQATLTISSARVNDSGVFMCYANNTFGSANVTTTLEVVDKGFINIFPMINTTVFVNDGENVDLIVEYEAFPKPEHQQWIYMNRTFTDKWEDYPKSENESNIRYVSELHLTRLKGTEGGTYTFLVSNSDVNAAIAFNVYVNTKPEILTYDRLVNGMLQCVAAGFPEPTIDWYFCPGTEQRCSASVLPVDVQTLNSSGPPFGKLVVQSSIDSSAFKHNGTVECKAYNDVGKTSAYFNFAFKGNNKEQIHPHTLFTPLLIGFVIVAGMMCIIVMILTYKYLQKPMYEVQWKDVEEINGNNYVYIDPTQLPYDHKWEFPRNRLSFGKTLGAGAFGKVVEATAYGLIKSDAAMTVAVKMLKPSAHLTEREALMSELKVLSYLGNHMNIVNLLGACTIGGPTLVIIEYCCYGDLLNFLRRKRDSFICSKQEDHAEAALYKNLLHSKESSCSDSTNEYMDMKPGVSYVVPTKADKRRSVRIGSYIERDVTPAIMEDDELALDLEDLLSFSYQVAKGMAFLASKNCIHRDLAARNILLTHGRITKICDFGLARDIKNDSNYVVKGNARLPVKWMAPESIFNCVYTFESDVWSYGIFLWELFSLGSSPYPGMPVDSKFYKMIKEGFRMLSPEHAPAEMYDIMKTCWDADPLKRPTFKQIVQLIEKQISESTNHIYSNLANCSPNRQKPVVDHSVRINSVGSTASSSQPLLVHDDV
Method in brief: as §1

[5] = biological target: T5, ARK5 (Homo sapiens, UniProt O60285)
T5 construct: host or cells: E. coli host derived from BL21
Method in brief: as §1

[6] = biological target: T6, SIK (Homo sapiens, UniProt P57059)
T6 construct: host or cells: T7 phage grown in E. coli (BL21-derived)
Method in brief: as §1

[7] = biological target: T7, WEE2 (Homo sapiens, UniProt P0C1S8)
T7 construct: host or cells: E. coli host derived from BL21, T7 phage
Method in brief: as §1

[8] = biological target: T8, PIK3CD (Homo sapiens, UniProt O00329)
T8 construct: host or cells: T7 phage in E. coli host derived from BL21
Method in brief: as §1

[9] = biological target: T9, JAK3(JH1domain- catalytic) (Homo sapiens, UniProt P52333)
T9 construct: JAK3(JH1domain- catalytic); host or cells: T7 phage grown in E. coli host derived from BL21
Method in brief: as §1

[10] = biological target: T10, HCK (Homo sapiens, UniProt P08631)
T10 construct: host or cells: T7 phage in E. coli host derived from BL21
T10 sequence (P08631 whole entry): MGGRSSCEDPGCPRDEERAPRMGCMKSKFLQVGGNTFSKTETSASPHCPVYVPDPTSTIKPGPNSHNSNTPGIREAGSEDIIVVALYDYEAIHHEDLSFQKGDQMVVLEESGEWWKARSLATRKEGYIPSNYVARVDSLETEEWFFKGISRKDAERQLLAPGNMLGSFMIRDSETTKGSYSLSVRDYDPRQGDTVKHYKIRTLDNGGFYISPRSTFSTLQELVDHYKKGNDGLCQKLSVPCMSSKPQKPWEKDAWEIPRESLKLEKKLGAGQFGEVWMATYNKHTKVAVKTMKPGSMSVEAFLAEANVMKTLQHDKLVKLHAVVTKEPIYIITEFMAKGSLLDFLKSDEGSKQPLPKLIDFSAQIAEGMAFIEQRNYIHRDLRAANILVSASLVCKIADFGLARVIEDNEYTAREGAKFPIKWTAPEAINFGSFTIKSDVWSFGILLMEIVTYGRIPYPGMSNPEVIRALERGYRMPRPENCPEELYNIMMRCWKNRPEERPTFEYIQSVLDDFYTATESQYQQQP
Method in brief: as §1

[11] = biological target: T11, GSK3A (Homo sapiens, UniProt P49840)
T11 construct: host or cells: T7 phage in E. coli host derived from BL21
Method in brief: as §1

[12] = biological target: T12, PIP5K2B (Homo sapiens, UniProt P78356)
T12 construct: host or cells: T7 phage in E. coli host derived from BL21
Method in brief: as §1

[13] = biological target: T13, FES (Homo sapiens, UniProt P07332)
T13 construct: host or cells: T7 phage in E. coli host derived from BL21
Method in brief: as §1

[14] = biological target: T14, JAK1(JH2domain-pseudokinase) (Homo sapiens, UniProt P23458)
T14 construct: JAK1(JH2domain-pseudokinase); host or cells: T7 phage grown in E. coli host derived from BL21
T14 sequence (P23458 583-855 limits assumed): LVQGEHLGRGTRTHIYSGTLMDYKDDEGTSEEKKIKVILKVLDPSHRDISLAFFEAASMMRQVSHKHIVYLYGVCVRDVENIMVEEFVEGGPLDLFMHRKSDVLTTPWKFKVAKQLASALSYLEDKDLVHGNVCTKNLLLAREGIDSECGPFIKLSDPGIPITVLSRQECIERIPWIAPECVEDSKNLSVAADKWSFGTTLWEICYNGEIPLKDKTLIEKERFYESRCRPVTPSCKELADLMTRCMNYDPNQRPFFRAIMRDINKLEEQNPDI
Method in brief: as §1

[15] = biological target: T15, CLK2 (Homo sapiens, UniProt P49760)
T15 construct: host or cells: T7 phage in E. coli host derived from BL21
Method in brief: as §1

[16] = biological target: T16, BRSK2 (Homo sapiens, UniProt Q8IWQ3)
T16 construct: host or cells: E. coli host derived from BL21
Method in brief: as §1

[17] = biological target: T17, MUSK (Homo sapiens, UniProt O15146)
T17 construct: host or cells: T7 phage grown in E. coli host derived from BL21
Method in brief: as §1

[18] = biological target: T18, LKB1 (Homo sapiens, UniProt Q15831)
T18 construct: host or cells: E. coli host derived from the BL21 strain, infected with T7 phage
Method in brief: as §1

[19] = biological target: T19, FYN (Homo sapiens, UniProt P06241)
T19 construct: host or cells: T7 phage in E. coli host derived from BL21
T19 sequence (P06241 whole entry): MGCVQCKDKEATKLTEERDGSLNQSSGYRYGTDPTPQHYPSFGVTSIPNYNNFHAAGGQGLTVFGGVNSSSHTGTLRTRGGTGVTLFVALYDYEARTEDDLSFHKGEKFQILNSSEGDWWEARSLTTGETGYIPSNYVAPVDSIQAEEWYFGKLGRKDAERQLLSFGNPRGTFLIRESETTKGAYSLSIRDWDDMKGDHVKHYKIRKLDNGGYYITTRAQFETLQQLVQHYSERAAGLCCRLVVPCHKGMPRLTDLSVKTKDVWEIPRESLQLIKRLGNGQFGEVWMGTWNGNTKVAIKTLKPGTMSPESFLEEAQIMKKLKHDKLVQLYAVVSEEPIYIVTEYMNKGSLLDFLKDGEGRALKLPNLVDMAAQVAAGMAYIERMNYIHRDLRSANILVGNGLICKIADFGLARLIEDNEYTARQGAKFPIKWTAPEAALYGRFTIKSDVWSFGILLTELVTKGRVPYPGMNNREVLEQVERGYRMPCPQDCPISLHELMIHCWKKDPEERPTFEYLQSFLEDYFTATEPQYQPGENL
Method in brief: as §1

[20] = biological target: T20, IGF1R (Homo sapiens, UniProt P08069)
T20 construct: host or cells: T7 phage grown in E. coli host derived from BL21
Method in brief: as §1

[21] = biological target: T21, RPS6KA2(Kin.Dom.-1-N-terminal) (Homo sapiens, UniProt Q15349)
T21 construct: RPS6KA2(Kin.Dom.-1-N-terminal); host or cells: E. coli host derived from BL21, T7 phage display
Method in brief: as §1

[22] = biological target: T22, ERK8 (Homo sapiens, UniProt Q8TD08)
T22 construct: purchased Ambit Biosciences Corp; host or cells: T7 phage in E. coli host derived from BL21
Method in brief: as §1

[23] = biological target: T23, BRAF(V600E) (Homo sapiens, UniProt P15056, V600E)
T23 construct: host or cells: E. coli host derived from BL21
T23 sequence (P15056 whole entry V600E): as the sequence (P15056 whole entry) above, with V600E counted along it
Method in brief: as §1

[24] = biological target: T24, RPS6KA6(Kin.Dom.-2-C-terminal) (Homo sapiens, UniProt Q9UK32)
T24 construct: RPS6KA6(Kin.Dom.-2-C-terminal); host or cells: T7 phage grown in E. coli (BL21-derived)
Method in brief: as §1

[25] = biological target: T25, ULK3 (Homo sapiens, UniProt Q6PHR2)
T25 construct: host or cells: E. coli host derived from BL21, T7 phage
Method in brief: as §1

[26] = biological target: T26, EGFR(E746-A750del) (Homo sapiens, UniProt P00533, DEL746-750)
T26 construct: purchased Ambit Biosciences Corp (KinomeScan); host or cells: T7 phage in E. coli host derived from BL21
Method in brief: as §1

[27] = biological target: T27, RPS6KA4(Kin.Dom.-2-C-terminal) (Homo sapiens, UniProt O75676)
T27 construct: RPS6KA4(KIN.DOM.2); host or cells: E. coli host derived from BL21, T7 phage display
Method in brief: as §1

[28] = biological target: T28, HPK1 (Homo sapiens, UniProt Q92918)
T28 construct: host or cells: T7 phage in E. coli host derived from BL21
Method in brief: as §1

[29] = biological target: T29, KIT(V559D) (Homo sapiens, UniProt P10721, V559D)
T29 construct: host or cells: T7 phage grown in E. coli host derived from BL21
T29 sequence (P10721 26-976 V559D): as the sequence (P10721 26-976 V559D/T670I) above, with I645T counted along it
Method in brief: as §1

[30] = biological target: T30, SRPK2 (Homo sapiens, UniProt P78362)
T30 construct: host or cells: T7 phage grown in E. coli (BL21-derived)
Method in brief: as §1

Q: With `C#Cc1cccc(Nc2ncnc3cc(OC)c(OCCCN4CCOCC4)cc23)c1` [NRC-2694, N-(3-ethynylphenyl)-7-methoxy-6-[3-(4-morpholinyl)propoxy]-4-quinazolinamine] as the compound, how does the remaining binding at 10 µM [1] read?
A: 12%

Q: What about the remaining binding at 10 µM [2] of the same compound?
A: 81%

Q: What about the remaining binding at 10 µM [3] of the same compound?
A: 0.95%

Q: What about the remaining binding at 10 µM [4] of the same compound?
A: 28%

Q: What about the remaining binding at 10 µM [5] of the same compound?
A: 29%

Q: What about the remaining binding at 10 µM [6] of the same compound?
A: 53%

Q: What about the remaining binding at 10 µM [7] of the same compound?
A: 53%

Q: And the remaining binding at 10 µM [8]?
A: 89%

Q: What about the remaining binding at 10 µM [9] of the same compound?
A: 72%

Q: What about the remaining binding at 10 µM [10] of the same compound?
A: 17%

Q: And the remaining binding at 10 µM [11]?
A: 75%

Q: What about the remaining binding at 10 µM [12] of the same compound?
A: 49%

Q: And the remaining binding at 10 µM [13]?
A: 72%

Q: And the remaining binding at 10 µM [14]?
A: 81%

Q: What about the remaining binding at 10 µM [15] of the same compound?
A: 64%

Q: What about the remaining binding at 10 µM [16] of the same compound?
A: 33%

Q: What about the remaining binding at 10 µM [17] of the same compound?
A: 100%

Q: What about the remaining binding at 10 µM [18] of the same compound?
A: 69%

Q: What about the remaining binding at 10 µM [19] of the same compound?
A: 41%

Q: And the remaining binding at 10 µM [20]?
A: 74%

Q: And the remaining binding at 10 µM [21]?
A: 70%

Q: What about the remaining binding at 10 µM [22] of the same compound?
A: 62%

Q: And the remaining binding at 10 µM [23]?
A: 73%

Q: What about the remaining binding at 10 µM [24] of the same compound?
A: 55%

Q: And the remaining binding at 10 µM [25]?
A: 62%

Q: And the remaining binding at 10 µM [26]?
A: 0%

Q: And the remaining binding at 10 µM [27]?
A: 8.9%

Q: And the remaining binding at 10 µM [28]?
A: 47%

Q: And the remaining binding at 10 µM [29]?
A: 17%

Q: And the remaining binding at 10 µM [30]?
A: 73%
